Laboratory results as given in US20220251036A1, “DIFLUOROHALOALLYLAMINE SULFONE DERIVATIVE INHIBITORS OF LYSYL OXIDASES, METHODS OF PREPARATION, AND USES THEREOF” (PHARMAXIS LTD., priority 2019, published 2022).
Read-outs that look alike come from different tables or passages of the source.

How the values were obtained:
Assay type in all cases: biochemical
recombinant human MAO-B = biological target: T1, recombinant human MAO-B (Homo sapiens, UniProt P27338); experiment: MAO-B inhibition; conditions: benzylamine 100 μM
T1 construct: purchased Sigma Aldrich
T1 sequence (P27338 1-520): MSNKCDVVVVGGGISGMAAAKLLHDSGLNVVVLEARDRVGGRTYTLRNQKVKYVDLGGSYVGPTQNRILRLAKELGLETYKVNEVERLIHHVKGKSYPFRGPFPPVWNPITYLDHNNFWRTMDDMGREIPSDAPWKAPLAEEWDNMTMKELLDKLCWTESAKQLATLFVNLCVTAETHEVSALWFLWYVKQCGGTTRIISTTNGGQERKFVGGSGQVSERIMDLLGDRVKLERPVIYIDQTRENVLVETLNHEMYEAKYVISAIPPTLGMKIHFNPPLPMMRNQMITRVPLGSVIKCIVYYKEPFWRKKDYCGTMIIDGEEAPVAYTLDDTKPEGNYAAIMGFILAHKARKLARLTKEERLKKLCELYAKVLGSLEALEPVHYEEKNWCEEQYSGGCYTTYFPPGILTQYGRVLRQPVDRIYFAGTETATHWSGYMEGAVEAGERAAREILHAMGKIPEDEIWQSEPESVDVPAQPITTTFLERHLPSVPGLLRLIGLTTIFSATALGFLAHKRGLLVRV
Experimental: The specificity of the compounds of this invention was tested by determining their ability to inhibit MAO-B activity in vitro using recombinant human MAO-B (0.02 mg/mL; Sigma Aldrich). The assay was performed in a similar way as for human SSAO/VAP-1 (Example 8) except, the substrate benzylamine was used at 100 μM.

Human recombinant LOXL2 = biological target: T2, Human recombinant LOXL2 (Homo sapiens, UniProt Q9Y4K0); experiment: LOXL2 inhibition, Amplex Red oxidation assay
T2 sequence (Q9Y4K0 26-774): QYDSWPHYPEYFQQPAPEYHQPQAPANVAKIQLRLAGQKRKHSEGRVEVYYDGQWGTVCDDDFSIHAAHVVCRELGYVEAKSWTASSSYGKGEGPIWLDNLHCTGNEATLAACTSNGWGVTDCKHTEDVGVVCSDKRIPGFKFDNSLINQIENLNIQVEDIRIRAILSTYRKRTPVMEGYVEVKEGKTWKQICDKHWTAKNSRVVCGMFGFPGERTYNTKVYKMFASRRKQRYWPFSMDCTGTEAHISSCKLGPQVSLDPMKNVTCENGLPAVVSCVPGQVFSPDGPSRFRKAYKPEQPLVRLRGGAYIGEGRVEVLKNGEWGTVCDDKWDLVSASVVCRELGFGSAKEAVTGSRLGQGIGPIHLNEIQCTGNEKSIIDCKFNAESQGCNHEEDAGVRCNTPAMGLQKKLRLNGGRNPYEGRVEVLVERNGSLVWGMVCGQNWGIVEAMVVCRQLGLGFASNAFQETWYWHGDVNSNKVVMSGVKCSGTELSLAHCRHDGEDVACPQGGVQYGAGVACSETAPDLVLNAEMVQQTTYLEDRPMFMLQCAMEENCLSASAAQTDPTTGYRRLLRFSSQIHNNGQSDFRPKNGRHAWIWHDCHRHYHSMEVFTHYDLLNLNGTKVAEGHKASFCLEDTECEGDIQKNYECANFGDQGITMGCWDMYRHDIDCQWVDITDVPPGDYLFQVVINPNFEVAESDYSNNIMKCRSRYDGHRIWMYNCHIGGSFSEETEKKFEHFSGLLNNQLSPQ
Experimental: LOX and LOXL protein family members can be acquired as recombinant active proteins from commercial sources, or extracted from animal tissues like bovine aorta, tendons, pig skin; or prepared from cell cultures. […] The assay was developed using either 384 or 96 well format. Briefly, in a standard black, clear bottom 384 well plate assay 25 μL of a dilution of any of the isoenzymes and orthologues in 1.2 M urea, 50 mM sodium borate buffer (pH 8.2) were added into each well in the presence of 1 μM mofegiline and 0.5 mM pargyline (to inhibit SSAO and MAO-B and MAO-A, respectively; not necessary if the enzyme is from a recombinant or purified form). Test compounds were dissolved in DMSO and tested in a Concentration Response Curve (CRC) with 11 data points, typically in the micromolar or nanomolar range after incubation with the enzyme for 30 min at 37° C. 25 μL of a reaction mixture containing twice the KM concentration of putrescine (Sigma Aldrich, e.g. 20 mM for LOX and LOXL1 or 10 mM for LOXL2 and 4 mM for LOXL3 and LOXL4), 120 μM Amplex Red (Sigma Aldrich) and 1.5 U/mL horseradish peroxidase (Sigma Aldrich) prepared in 1.2 M urea, 50 mM sodium borate buffer (pH 8.2) were then added to the corresponding wells. The above volumes were doubled in the case of 96 wells plate. The fluorescence (RFU) was read every 2.5 min for 30 min at […] 37° C., excitation 565 nm and emission 590 (Optima; BMG labtech). The slope of the kinetics for each well was calculated using MARS data analysis software (BMG labtech) and this value was used to deduce the IC50 value (Dotmatics). The ability of the inventive compounds to inhibit the amine oxidase activity of LOX and other family members is shown in Table 4.

recombinant human MAO-A = biological target: T3, recombinant human MAO-A (Homo sapiens, UniProt P21397); experiment: MAO-A inhibition; conditions: 2 hours incubation, tyramine 100 μM
T3 construct: purchased Sigma Aldrich
T3 sequence (P21397 1-527): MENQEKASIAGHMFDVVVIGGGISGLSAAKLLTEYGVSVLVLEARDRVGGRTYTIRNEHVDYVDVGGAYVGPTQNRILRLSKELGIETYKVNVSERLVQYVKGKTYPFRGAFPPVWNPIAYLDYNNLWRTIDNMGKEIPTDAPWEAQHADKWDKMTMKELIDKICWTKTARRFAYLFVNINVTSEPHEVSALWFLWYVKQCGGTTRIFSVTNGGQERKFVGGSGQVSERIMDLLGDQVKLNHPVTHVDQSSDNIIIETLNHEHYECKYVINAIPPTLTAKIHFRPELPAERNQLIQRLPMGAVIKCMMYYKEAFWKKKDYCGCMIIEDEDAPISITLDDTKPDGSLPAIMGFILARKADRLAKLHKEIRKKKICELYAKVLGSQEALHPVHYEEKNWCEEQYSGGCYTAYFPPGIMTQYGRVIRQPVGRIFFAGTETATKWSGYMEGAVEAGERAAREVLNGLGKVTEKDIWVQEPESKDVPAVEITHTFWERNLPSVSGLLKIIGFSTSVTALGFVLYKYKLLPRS
Experimental: The specificity of the compounds of this invention was tested by determining their ability to inhibit MAO-A activity in vitro, using recombinant human MAO-A (0.003 mg/mL; Sigma Aldrich). The assay was performed in a similar way as for human SSAO/VAP-1 (Example 8) except, the incubation with the test compounds was extended to 2 hours, and the substrate tyramine was used at 100 μM in place of benzylamine.

[1] = incubation with enzyme 30 min at 37° C, read-out: Human recombinant LOXL2 Activity IC50

SMILES	IC50 (recombinant human MAO-B)	IC50 (Human recombinant LOXL2; [1])	IC50 (recombinant human MAO-A)	IC50 (Human recombinant LOXL2)
N#CCCN [BAPN, β-aminopropionitrile, reference compound]	> 30 µM	400 nM	> 30 µM	–
NC/C=C(\F)C(F)(F)S(=O)(=O)c1ccccc1 [Compound 1, (Z)-3,4,4-trifluoro-4-(phenylsulfonyl)but-2-en-1-amine]	–	–	–	400 nM
NC/C=C(\F)C(F)(F)S(=O)(=O)c1cccc2cccnc12 [Compound 2, (Z)-3,4,4-trifluoro-4-(quinolin-8-ylsulfonyl)but-2-en-1-amine]	–	1800 nM	–	–
CNc1ccccc1S(=O)(=O)C(F)(F)/C(F)=C/CN [Compound 4, (Z)-2-((4-amino-1,1,2-trifluorobut-2-en-yl)sulfony1)-N-methylaniline]	≥ 30 µM	1000 nM	26.7 µM	–
NC/C=C(\F)C(F)(F)[S+]([O-])c1ccccc1 (stereo not shown) [Compound 9, (Z)-3,4,4-trifluoro-4-(phenylsulfinyl)but-2-en-1-amine]	–	1400 nM	–	–
COc1cccc(S(=O)(=O)C(F)(F)/C(F)=C/CN)c1 [Compound 12, (Z)-3,4,4-trifluoro-4-((3-methoxyphenyl)sulfonyl)but-2-en-1-amine]	–	600 nM	–	–

The next lines start with results.

IC50 (recombinant human MAO-B)	IC50 (Human recombinant LOXL2; [1])	IC50 (recombinant human MAO-A)	SMILES	IC50 (Human recombinant LOXL2)
> 30 µM	500 nM	20.2 µM	Cc1ccccc1S(=O)(=O)C(F)(F)/C(F)=C/CN [Compound 5, (Z)-3,4,4-trifluoro-4-(o-tolylsulfonyl)but-2-en-1-amine]	–
> 30 µM	500 nM	> 30 µM	Cc1ccc(S(=O)(=O)C(F)(F)/C(F)=C/CN)cc1 [Compound 6, (Z)-3,4,4-trifluoro-4-tosylbut-2-en-1-amine]	–
> 30 µM	300 nM	> 30 µM	NC/C=C(\F)C(F)(F)S(=O)(=O)Cc1ccccc1 [Compound 8, (Z)-4-(benzylsulfony1)-3,4,4-trifluorobut-2-en-1-amine]	–
> 30 µM	100 nM	4.7 µM	CS(=O)(=O)c1ccc(COc2ccccc2S(=O)(=O)C(F)(F)/C(F)=C/CN)cc1 [Compound 10, (Z)-3,4,4-trifluoro-4-((2-((4-(methylsulfonyl)benzyl)oxy)phenyl)sulfonyl) but-2-en-1-amine]	–
–	300 nM	–	NC/C=C(\F)C(F)(F)S(=O)(=O)c1cccs1 [Compound 14, (Z)-3,4,4-trifluoro-4-(thiophen-2-ylsulfonyl)but-2-en-1-amine]	–
–	400 nM	–	CS(=O)(=O)c1cccc(CS(=O)(=O)C(F)(F)/C(F)=C/CN)c1 [Compound 17, (Z)-3,4,4-trifluoro-4-((3-(methylsulfonyl)benzyl)sulfonyl)but-2-en-1-amine]	–
–	500 nM	–	NC/C=C(\F)C(F)(F)S(=O)(=O)C1CCCC1 [Compound 19, (Z)-4-(cyclopentylsulfony1)-3,4,4-trifluorobut-2-en-1-amine]	–
